Results reported in ChEMBL document CHEMBL1201862, “PubChem BioAssay data set” (2004).
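Dose response: 5 concentrations. Exposure: 48 h. Format: 96-well plates. Endpoint: linear interpolation; highest concentration if not reached. Abbreviation: GI50, concentration required for 50% inhibition of growth.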 Calls of active or inactive are those of the source. No stated cut-off is given here; in the data, active = GI50 up to about 1.1 µM and inactive = higher.

How the values were obtained:
Experiment in all cases: NCI tumour cell line growth inhibition, 48 h
A498 = system: A498
A549 = system: A549
BT-549 = system: BT-549
CCRF-CEM = system: CCRF-CEM
COLO 205 = system: COLO 205
EKVX = system: EKVX
HCC 2998 = system: HCC 2998
KM12 = system: KM12
LOX IMVI = system: LOX IMVI
M19-MEL = system: M19-MEL
MDA-MB-231 = system: MDA-MB-231
MDA-MB-435 = system: MDA-MB-435
MDA-N = system: MDA-N
Malme-3M = system: Malme-3M
OVCAR-3 = system: OVCAR-3
OVCAR-5 = system: OVCAR-5
SK-MEL-5 = system: SK-MEL-5
SNB-19 = system: SNB-19
SW-620 = system: SW-620
UACC-62 = system: UACC-62

SMILES | GI50 (A498) | GI50 (A549) | GI50 (BT-549) | GI50 (CCRF-CEM) | GI50 (COLO 205) | GI50 (EKVX) | GI50 (HCC 2998) | GI50 (KM12) | GI50 (LOX IMVI) | GI50 (M19-MEL) | GI50 (MDA-MB-231) | GI50 (MDA-MB-435) | GI50 (MDA-N) | GI50 (Malme-3M) | GI50 (OVCAR-3) | GI50 (OVCAR-5) | GI50 (SK-MEL-5) | GI50 (SNB-19) | GI50 (SW-620) | GI50 (UACC-62)
Nc1ccc2c(SCc3ccc([N+](=O)[O-])cc3)c3ccccc3nc2c1 | 22.5 µM (inactive) | 21.6 µM (inactive) | 17.9 µM (inactive) | 1.35 µM (inactive) | 2.28 µM (inactive) | 24.8 µM (inactive) | 21.5 µM (inactive) | 12.5 µM (inactive) | 6.84 µM (inactive) | 13.2 µM (inactive) | 25.5 µM (inactive) | 14.5 µM (inactive) | 12.8 µM (inactive) | 13.5 µM (inactive) | 15.8 µM (inactive) | 18.3 µM (inactive) | 15.2 µM (inactive) | 21.9 µM (inactive) | 2.87 µM (inactive) | 16.3 µM (inactive)
CC(=O)Nc1ccccc1S(=O)(=O)c1ccccc1 | > 100 µM (inactive) | > 100 µM (inactive) | – | > 100 µM (inactive) | > 100 µM (inactive) | > 100 µM (inactive) | > 100 µM (inactive) | > 100 µM (inactive) | > 100 µM (inactive) | > 100 µM (inactive) | – | – | – | > 100 µM (inactive) | > 100 µM (inactive) | 0.0409 µM (active) | > 100 µM (inactive) | > 100 µM (inactive) | > 100 µM (inactive) | > 100 µM (inactive)
CC1=Nn2c(nnc2-c2ccc(Cl)cc2)NC(C)(C)C1 | > 100 µM (inactive) | > 100 µM (inactive) | – | > 100 µM (inactive) | > 100 µM (inactive) | > 100 µM (inactive) | > 100 µM (inactive) | > 100 µM (inactive) | > 100 µM (inactive) | > 100 µM (inactive) | – | – | – | > 100 µM (inactive) | > 100 µM (inactive) | > 100 µM (inactive) | > 100 µM (inactive) | > 100 µM (inactive) | > 100 µM (inactive) | > 100 µM (inactive)
C/C=C(\N=C=S)C(=O)OC1C(COC(C)=O)OC([C@]2(O)CC(=O)C(N)=C(C(=O)O)C2=O)C(O)C1OC1CC(OC)C(O)([C@@H](C)OC(=O)[C@@H](C)CC)C(C)O1 (some centres not stated) | 35 µM (inactive) | 33.7 µM (inactive) | 7.43 µM (inactive) | 2.4 µM (inactive) | 4.71 µM (inactive) | 12.6 µM (inactive) | 18.9 µM (inactive) | 7.94 µM (inactive) | 6.34 µM (inactive) | 2.6 µM (inactive) | 19.6 µM (inactive) | 17.3 µM (inactive) | 13.2 µM (inactive) | 9.57 µM (inactive) | 15.8 µM (inactive) | 20.7 µM (inactive) | 14.8 µM (inactive) | 11.9 µM (inactive) | 3.01 µM (inactive) | 5.31 µM (inactive)
CN(CC(=O)O)S(=O)(=O)c1ccc2ccccc2c1 | > 100 µM (inactive) | > 100 µM (inactive) | – | > 100 µM (inactive) | > 100 µM (inactive) | > 100 µM (inactive) | > 100 µM (inactive) | > 100 µM (inactive) | > 100 µM (inactive) | > 100 µM (inactive) | – | – | – | > 100 µM (inactive) | > 100 µM (inactive) | > 100 µM (inactive) | > 100 µM (inactive) | > 100 µM (inactive) | > 100 µM (inactive) | > 100 µM (inactive)
COc1ccc(-c2c(N)[n+]([O-])c3cc(C)c(C)cc3[n+]2[O-])cc1OC | > 100 µM (inactive) | > 100 µM (inactive) | – | 78 µM (inactive) | 22.3 µM (inactive) | > 100 µM (inactive) | > 100 µM (inactive) | > 100 µM (inactive) | > 100 µM (inactive) | 72.3 µM (inactive) | – | – | – | > 100 µM (inactive) | > 100 µM (inactive) | > 100 µM (inactive) | 30.9 µM (inactive) | 91.2 µM (inactive) | 74.8 µM (inactive) | 41.4 µM (inactive)
CCN(CC)C(=S)SC1CCOP(=O)(N(CCCl)CCCl)N1C (configuration not stated) | 44.9 µM (inactive) | – | > 100 µM (inactive) | 0.109 µM (active) | 0.553 µM (active) | 57.1 µM (inactive) | 33.4 µM (inactive) | 7.19 µM (inactive) | 1.41 µM (inactive) | 0.212 µM (active) | > 100 µM (inactive) | > 100 µM (inactive) | > 100 µM (inactive) | 27.5 µM (inactive) | > 100 µM (inactive) | 12.1 µM (inactive) | 2.96 µM (inactive) | > 92.9 µM (inactive) | 1.71 µM (inactive) | 1.83 µM (inactive)
Cc1cc(NC(=O)NC(=O)c2ccccc2NC(=O)C(C)N)ccc1Oc1ncc(Br)cn1 (configuration not stated) | 0.025 µM (active) | 0.153 µM (active) | 26.8 µM (inactive) | 0.0619 µM (active) | 0.0719 µM (active) | 0.335 µM (active) | 0.298 µM (active) | 0.169 µM (active) | 0.173 µM (active) | 0.292 µM (active) | 0.143 µM (active) | 0.0254 µM (active) | 0.0202 µM (active) | 0.188 µM (active) | 0.0196 µM (active) | 1.09 µM (active) | 0.0457 µM (active) | 0.248 µM (active) | 0.185 µM (active) | 0.0693 µM (active)
O=C(O)COc1ccc(C(=O)/C(SS/C(C(=O)c2ccc(OCC(=O)O)c(Cl)c2Cl)=C2\C=C(c3ccc(F)cc3)SS2)=C2/C=C(c3ccc(F)cc3)SS2)c(Cl)c1Cl | 31.7 µM (inactive) | 40.4 µM (inactive) | 27.7 µM (inactive) | 4.95 µM (inactive) | 6.76 µM (inactive) | 38.6 µM (inactive) | 25.6 µM (inactive) | 15.1 µM (inactive) | 3.12 µM (inactive) | 13.2 µM (inactive) | – | 49.4 µM (inactive) | – | 40.8 µM (inactive) | 9.46 µM (inactive) | 32.8 µM (inactive) | 17.5 µM (inactive) | 15 µM (inactive) | 15.6 µM (inactive) | 8.24 µM (inactive)
[O-][n+]1c(-c2ccccc2)oc2ccccc21 | 17.9 µM (inactive) | 4.6 µM (inactive) | – | > 62.1 µM (inactive) | 18.6 µM (inactive) | 26.7 µM (inactive) | 19.1 µM (inactive) | 17.3 µM (inactive) | 3.07 µM (inactive) | 1.89 µM (inactive) | – | – | – | 13 µM (inactive) | 18.5 µM (inactive) | 33.8 µM (inactive) | 2.25 µM (inactive) | 24.7 µM (inactive) | 16.6 µM (inactive) | 8.69 µM (inactive)
